Reference: US10294275B2, “Site-selective functionalization of glycopeptide antibiotics” (Yale University, priority 2012, dated 2019)
Values after ≈ are worked out from the molar mass of the structure shown.

Tests used:
Type in all cases: cell-based
[1] = system: vancomycin-resistant enterococci (VanB), ATCC 51299; experiment: Minimum inhibitory concentration against VRE (VanB)
Text: (§1) The chemistry described above enabled direct synthesis of eleven previously unknown analogs of 3. The minimum inhibitory concentrations (MICs) for the new analogs as antibacterial agents as determined.

[2] = system: vancomycin-resistant enterococci (VanA), MMX 486; experiment: Minimum inhibitory concentration against VRE (VanA); details: for activity against VRE (VanA) strain, in words: compared with vancomycin and teicoplanin
Text: as §1

[3] = system: methicillin-susceptible S. aureus, ATCC 29213; experiment: Minimum inhibitory concentration against MSSA
Text: as §1

[4] = system: vancomycin-susceptible enterococci, ATCC 29212; experiment: Minimum inhibitory concentration against VSE; details: vancomycin-susceptible enterococci, ATCC 29212
Text: as §1

[5] = system: methicillin-resistant S. aureus, ATCC 43300; experiment: Minimum inhibitory concentration against MRSA; details: for potency against MRSA strain, in words: compared with vancomycin and teicoplanin
Text: as §1

[6] = vancomycin-resistant enterococci, ATCC 51299
[7] = MMX 486, vancomycin and teicoplanin resistant
[8] = methicillin-susceptible S. aureus, ATCC 29213
[9] = methicillin-resistant S. aureus, ATCC 43300
[10] = compared with vancomycin and teicoplanin

| Compound | MIC, VRE (VanB) [1, 6] | MIC, VRE (VanA) [2, 7] | MIC, MSSA [3, 8] | MIC, VSE [4] | MIC, MRSA [5, 9] | potency against MRSA strain, in words [5] | MIC ([1]; Enterococcus, vancomycin-resistant enterococci, ATCC 51299, read-out: MIC, VRE (VanB)) | MIC ([2]; Enterococcus, VRE, MMX 486, vancomycin and teicoplanin resistant, read-out: MIC, VRE (VanA)) | MIC ([3]; Staphylococcus aureus, methicillin-susceptible S. aureus, ATCC 29213, read-out: MIC, MSSA) | MIC ([4]; read-out: MIC, VSE) | MIC ([5]; Staphylococcus aureus, methicillin-resistant S. aureus, ATCC 43300, read-out: MIC, MRSA) | activity against VRE (VanA) strain, in words [2] | potency against MSSA strain, in words [3, 10] | activity against VRE (VanB) strain, in words [1, 10] |
| --- | --- | --- | --- | --- | --- | --- | --- | --- | --- | --- | --- | --- | --- | --- |
| teicoplanin [reference compound] | 0.25 µg/mL | >64 µg/mL | 0.5 µg/mL | 0.25 µg/mL | 0.5 µg/mL |  |  |  |  |  |  |  |  |  |
| CC(=O)N[C@H]1[C@H](O[C@@H]2c3ccc(c(Cl)c3)Oc3cc4cc(c3O[C@@H]3O[C@H](CO)[C@@H](O)[C@H](O)[C@H]3NC(=O)CCCCCCC(C)C)Oc3ccc(cc3Cl)C[C@H]3NC(=O)[C@H](N)c5ccc(O)c(c5)Oc5cc(c(Br)c(O)c5Br)[C@H](NC3=O)C(=O)N[C@H]4C(=O)N[C@H]3C(=O)N[C@@H]2C(=O)N[C@H](C(=O)O)c2cc(O)c(Br)c(O[C@H]4O[C@H](CO)[C@@H](O)[C@H](O)[C@@H]4O)c2-c2cc3ccc2O)O[C@H](CO)[C@@H](O)[C@@H]1O [Compound 12] | 8 µg/mL (≈ 3.78 µM) | >64 µg/mL | 2 µg/mL (≈ 0.945 µM) | 4 µg/mL (≈ 1.89 µM) | 2 µg/mL (≈ 0.945 µM) |  |  |  |  |  |  |  |  |  |
| CC(=O)N[C@H]1[C@H](O[C@@H]2c3ccc(c(Cl)c3)Oc3cc4cc(c3O[C@@H]3O[C@H](CO)[C@@H](O)[C@H](O)[C@H]3NC(=O)CCCCCCC(C)C)Oc3ccc(cc3Cl)C[C@H]3NC(=O)[C@H](N)c5ccc(O)c(c5)Oc5cc(O)c(-c6ccoc6)c(c5)[C@H](NC3=O)C(=O)N[C@H]4C(=O)N[C@H]3C(=O)N[C@@H]2C(=O)N[C@H](C(=O)O)c2cc(O)cc(O[C@H]4O[C@H](CO)[C@@H](O)[C@H](O)[C@@H]4O)c2-c2cc3ccc2O)O[C@H](CO)[C@@H](O)[C@@H]1O [Compound 14] | 0.5 µg/mL (≈ 0.257 µM) | >64 µg/mL | 0.25 µg/mL (≈ 0.128 µM) | 0.25 µg/mL (≈ 0.128 µM) | 0.25 µg/mL (≈ 0.128 µM) | higher potency |  |  |  |  |  |  |  |  |
| CC(=O)N[C@H]1[C@H](O[C@@H]2c3ccc(c(Cl)c3)Oc3cc4cc(c3O[C@@H]3O[C@H](CO)[C@@H](O)[C@H](O)[C@H]3NC(=O)CCCCCCC(C)C)Oc3ccc(cc3-c3ccoc3)C[C@H]3NC(=O)[C@H](N)c5ccc(O)c(c5)Oc5cc(O)c(-c6ccoc6)c(c5)[C@H](NC3=O)C(=O)N[C@H]4C(=O)N[C@H]3C(=O)N[C@@H]2C(=O)N[C@H](C(=O)O)c2cc(O)cc(O[C@H]4O[C@H](CO)[C@@H](O)[C@H](O)[C@@H]4O)c2-c2cc3ccc2O)O[C@H](CO)[C@@H](O)[C@@H]1O [Compound 15] | 0.25 µg/mL (≈ 0.126 µM) | >32 µg/mL | 0.25 µg/mL (≈ 0.126 µM) | 0.12 µg/mL (≈ 0.0607 µM) | 0.25 µg/mL (≈ 0.126 µM) |  |  |  |  |  |  |  |  |  |
| CC(=O)NC[C@H]1CN(c2ccc(N3CCOCC3)c(F)c2)C(=O)O1 [Linezolid, reference compound] |  |  |  |  |  |  | 2 µg/mL (≈ 5.93 µM) | 2 µg/mL (≈ 5.93 µM) | 4 µg/mL (≈ 11.9 µM) | 2 µg/mL (≈ 5.93 µM) | 4 µg/mL (≈ 11.9 µM) |  |  |  |
| CC(=O)N[C@H]1[C@H](O[C@@H]2c3ccc(c(Cl)c3)Oc3cc4cc(c3O[C@@H]3O[C@H](CO)[C@@H](O)[C@H](O)[C@H]3NC(=O)CCCCCCC(C)C)Oc3ccc(cc3-c3ccc(-c5ccccc5)cc3)C[C@H]3NC(=O)[C@H](N)c5ccc(O)c(c5)Oc5cc(O)cc(c5)[C@H](NC3=O)C(=O)N[C@H]4C(=O)N[C@H]3C(=O)N[C@@H]2C(=O)N[C@H](C(=O)O)c2c(Br)c(O)cc(O[C@H]4O[C@H](CO)[C@@H](O)[C@H](O)[C@@H]4O)c2-c2cc3ccc2O)O[C@H](CO)[C@@H](O)[C@@H]1O [Compound 17] | 0.5 µg/mL (≈ 0.241 µM) | 32 µg/mL (≈ 15.4 µM) | 4 µg/mL (≈ 1.93 µM) | 1 µg/mL (≈ 0.482 µM) | 2 µg/mL (≈ 0.963 µM) |  |  |  |  |  |  |  |  |  |
| CC(=O)N[C@H]1[C@H](O[C@@H]2c3ccc(c(Cl)c3)Oc3cc4cc(c3O[C@@H]3O[C@H](CO)[C@@H](O)[C@H](O)[C@H]3NC(=O)CCCCCCC(C)C)Oc3ccc(cc3Cl)C[C@H]3NC(=O)[C@H](N)c5ccc(O)c(c5)Oc5cc(O)c(Br)c(c5)[C@H](NC3=O)C(=O)N[C@H]4C(=O)N[C@H]3C(=O)N[C@@H]2C(=O)N[C@H](C(=O)O)c2cc(O)cc(O[C@H]4O[C@H](CO)[C@@H](O)[C@H](O)[C@@H]4O)c2-c2cc3ccc2O)O[C@H](CO)[C@@H](O)[C@@H]1O [Compound 7] | 0.5 µg/mL (≈ 0.255 µM) | >64 µg/mL | 0.5 µg/mL (≈ 0.255 µM) | 0.25 µg/mL (≈ 0.128 µM) | 1 µg/mL (≈ 0.511 µM) |  |  |  |  |  |  |  |  |  |
| CCCCCC/C=C/c1cc2ccc1Oc1cc3cc(c1O[C@@H]1O[C@H](CO)[C@@H](O)[C@H](O)[C@H]1NC(=O)CCCCCCC(C)C)Oc1ccc(cc1Cl)[C@@H](O[C@@H]1O[C@H](CO)[C@@H](O)[C@H](O)[C@H]1NC(C)=O)[C@@H]1NC(=O)[C@H](NC(=O)[C@@H]3NC(=O)[C@H]3NC(=O)[C@@H](C2)NC(=O)[C@H](N)c2ccc(O)c(c2)Oc2cc(O)cc3c2)c2ccc(O)c(c2)-c2c(O[C@H]3O[C@H](CO)[C@@H](O)[C@H](O)[C@@H]3O)cc(O)cc2[C@@H](C(=O)O)NC1=O [Compound 20] | 0.25 µg/mL (≈ 0.128 µM) | 1 µg/mL (≈ 0.511 µM) | 8 µg/mL (≈ 4.09 µM) | 0.5 µg/mL (≈ 0.256 µM) | 4 µg/mL (≈ 2.05 µM) |  |  |  |  |  |  | quite high (significant) potency |  |  |
| CC(=O)N[C@H]1[C@H](O[C@@H]2c3ccc(c(Cl)c3)Oc3cc4cc(c3O[C@@H]3O[C@H](CO)[C@@H](O)[C@H](O)[C@H]3NC(=O)CCCCCCC(C)C)Oc3ccc(cc3-c3ccoc3)C[C@H]3NC(=O)[C@H](N)c5ccc(O)c(c5)Oc5cc(O)cc(c5)[C@H](NC3=O)C(=O)N[C@H]4C(=O)N[C@H]3C(=O)N[C@@H]2C(=O)N[C@H](C(=O)O)c2c(Br)c(O)cc(O[C@H]4O[C@H](CO)[C@@H](O)[C@H](O)[C@@H]4O)c2-c2cc3ccc2O)O[C@H](CO)[C@@H](O)[C@@H]1O [Compound 16] | 0.5 µg/mL (≈ 0.251 µM) | >64 µg/mL | 0.5 µg/mL (≈ 0.251 µM) | 0.25 µg/mL (≈ 0.126 µM) | 0.5 µg/mL (≈ 0.251 µM) |  |  |  |  |  |  |  |  |  |
| CC(=O)N[C@H]1[C@H](O[C@@H]2c3ccc(c(Cl)c3)Oc3cc4cc(c3O[C@@H]3O[C@H](CO)[C@@H](O)[C@H](O)[C@H]3NC(=O)CCCCCCC(C)C)Oc3ccc(cc3Cl)C[C@H]3NC(=O)[C@H](N)c5ccc(O)c(c5)Oc5cc(O)cc(c5)[C@H](NC3=O)C(=O)N[C@H]4C(=O)N[C@H]3C(=O)N[C@@H]2C(=O)N[C@H](C(=O)O)c2cc(O)cc(O[C@H]4O[C@H](CO)[C@@H](O)[C@H](O)[C@@H]4O)c2-c2cc3ccc2O)O[C@H](CO)[C@@H](O)[C@@H]1O [Teicoplanin A2-2, reference compound] | 0.25 µg/mL (≈ 0.133 µM) | >64 µg/mL | 0.5 µg/mL (≈ 0.266 µM) | 0.25 µg/mL (≈ 0.133 µM) | 0.5 µg/mL (≈ 0.266 µM) |  |  |  |  |  |  |  |  |  |
| CC(=O)N[C@H]1[C@H](O[C@@H]2c3ccc(c(Cl)c3)Oc3cc4cc(c3O[C@@H]3O[C@H](CO)[C@@H](O)[C@H](O)[C@H]3NC(=O)CCCCCCC(C)C)Oc3ccc(cc3-c3ccc(-c5ccccc5)cc3)C[C@H]3NC(=O)[C@H](N)c5ccc(O)c(c5)Oc5cc(O)cc(c5)[C@H](NC3=O)C(=O)N[C@H]4C(=O)N[C@H]3C(=O)N[C@@H]2C(=O)N[C@H](C(=O)O)c2cc(O)cc(O[C@H]4O[C@H](CO)[C@@H](O)[C@H](O)[C@@H]4O)c2-c2cc3ccc2O)O[C@H](CO)[C@@H](O)[C@@H]1O [Compound 19] | 0.25 µg/mL (≈ 0.125 µM) | 8 µg/mL (≈ 4.01 µM) | 8 µg/mL (≈ 4.01 µM) | 0.5 µg/mL (≈ 0.25 µM) | 4 µg/mL (≈ 2 µM) | loss of potency |  |  |  |  |  | significant activity | loss of potency |  |
| CC(=O)N[C@H]1[C@H](O[C@@H]2c3ccc(c(Cl)c3)Oc3cc4cc(c3O[C@@H]3O[C@H](CO)[C@@H](O)[C@H](O)[C@H]3NC(=O)CCCCCCC(C)C)Oc3ccc(cc3Cl)C[C@H]3NC(=O)[C@H](N)c5ccc(O)c(c5)Oc5cc(O)cc(c5)[C@H](NC3=O)C(=O)N[C@H]4C(=O)N[C@H]3C(=O)N[C@@H]2C(=O)N[C@H](C(=O)O)c2c(Br)c(O)cc(O[C@H]4O[C@H](CO)[C@@H](O)[C@H](O)[C@@H]4O)c2-c2cc3ccc2O)O[C@H](CO)[C@@H](O)[C@@H]1O [Compound 4] | 1 µg/mL (≈ 0.511 µM) | >64 µg/mL | 0.5 µg/mL (≈ 0.255 µM) | 0.5 µg/mL (≈ 0.255 µM) | 1 µg/mL (≈ 0.511 µM) |  |  |  |  |  |  |  |  |  |
| CC(=O)N[C@H]1[C@H](O[C@@H]2c3ccc(c(Cl)c3)Oc3cc4cc(c3O[C@@H]3O[C@H](CO)[C@@H](O)[C@H](O)[C@H]3NC(=O)CCCCCCC(C)C)Oc3ccc(cc3-c3ccoc3)C[C@H]3NC(=O)[C@H](N)c5ccc(O)c(c5)Oc5cc(O)cc(c5)[C@H](NC3=O)C(=O)N[C@H]4C(=O)N[C@H]3C(=O)N[C@@H]2C(=O)N[C@H](C(=O)O)c2cc(O)cc(O[C@H]4O[C@H](CO)[C@@H](O)[C@H](O)[C@@H]4O)c2-c2cc3ccc2O)O[C@H](CO)[C@@H](O)[C@@H]1O [Compound 18] | 0.12 µg/mL (≈ 0.0628 µM) | 32 µg/mL (≈ 16.7 µM) | 0.25 µg/mL (≈ 0.131 µM) | 0.12 µg/mL (≈ 0.0628 µM) | 0.25 µg/mL (≈ 0.131 µM) |  |  |  |  |  |  | enhancement of activity |  | enhancement of activity |
